Data published in patent publication US20180021303A1, “BKCA CHANNEL ACTIVATOR FOR TREATING MUSCULAR DISORDER” (Canbex Therapeutics Limited, priority 2015, published 2018).

Columns and labels:
[1] = from previously published data; cited from earlier work
[2] = from previously published data; cited from earlier work; remark: listed apart in the source
[3] = test system: Biozzi ABH mice with visible spasticity (relapsing progressive experimental autoimmune encephalomyelitis); test: Spasticity (limb stiffness against a strain gauge) in Biozzi ABH mice with relapsing progressive experimental autoimmune encephalomyelitis; format: in vivo, mouse; settings: result in words
Experimental: BMS 204352 and NS 1619 were dissolved in ethanol:cremophor:phosphate buffered saline 1:1:18. […] Paxilline was used at 1 mg/kg, just below doses reported to cause tremors in mice.
Biozzi ABH were injected with mouse spinal cord homogenate in Freunds adjuvant on day 0 and day 7 based on published protocols (Al-Izki S. et al. Mult Scler Rel Dis. 2012; 1: 29-38 and relapsing progressive experimental autoimmune encephalomyelitis developed. Following the development of visible spasticity animals were randomly allocated to treatment groups and spasticity was assessed by measuring limb stiffness against a strain guage (Pryce G. et al. FASEB J. 28: 2014; 117-130).
Animals were injected with: • BMS 204352: 20 mg/kg i.p. n=11 (FIG. 1; Table 2); • NS 1619: 10 mg/kg i.p. n=13 (FIG. 2; Table 1); • NS 11021: 10 mg/kg i.p. n=13 (FIG. 3; Table 3) in ethanol:cremophor:PBS (1:1:18).

Compound | CNS penetration [1] | Tolerability [2] | Efficacy in a mouse model of spasticity in multiple sclerosis [3]
O=c1[nH]c2cc(C(F)(F)F)ccc2n1-c1cc(C(F)(F)F)ccc1O [NS 1619, 1,3-dihydro-1-[2-hydroxy-5-(trifluoromethyl)phenyl]-5-(trifluoromethyl)-2H-benzimidazol-2-one] | CNS excluded | – | –
COc1ccc(Cl)cc1[C@]1(F)C(=O)Nc2cc(C(F)(F)F)ccc21 [BMS 204352, (3S)-3-(5-chloro-2-methoxyphenyl)-3-fluoro-1,3-dihydro-6-(trifluoromethyl)-2H-Indol-2-one] | CNS penetrant | well tolerated | effective
